Measured values: PubChem BioAssay (NCI)
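Protocol summary: plate cells (96-well), add compound at 5 concentrations, incubate 48 h, interpolate endpoints linearly. TGI marks complete inhibition of growth.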

Key:
Assay in all cases: NCI tumour cell line growth inhibition, 48 h
786-0 renal = system: 786-0 renal
A498 renal = system: A498 renal
ACHN renal = system: ACHN renal
CAKI-1 renal = system: CAKI-1 renal
CCRF-CEM leukemia = system: CCRF-CEM leukemia
COLO 205 colon = system: COLO 205 colon
DLD-1 colon = system: DLD-1 colon
DMS 114 small cell lung = system: DMS 114 small cell lung
DMS 273 small cell lung = system: DMS 273 small cell lung
EKVX NSCLC = system: EKVX NSCLC
HCT-15 colon = system: HCT-15 colon
HL-60(TB) leukemia = system: HL-60(TB) leukemia
HOP-18 NSCLC = system: HOP-18 NSCLC
HOP-62 NSCLC = system: HOP-62 NSCLC
HOP-92 NSCLC = system: HOP-92 NSCLC
HT29 colon = system: HT29 colon
IGROV1 ovarian = system: IGROV1 ovarian
K-562 leukemia = system: K-562 leukemia
KM12 colon = system: KM12 colon
KM20L2 colon = system: KM20L2 colon
LOX IMVI melanoma = system: LOX IMVI melanoma
LXFL 529 NSCLC = system: LXFL 529 NSCLC
M14 melanoma = system: M14 melanoma
M19-MEL melanoma = system: M19-MEL melanoma
MALME-3M melanoma = system: MALME-3M melanoma
MOLT-4 leukemia = system: MOLT-4 leukemia
NCI-H226 lung = system: NCI-H226 lung
NCI-H23 lung = system: NCI-H23 lung
NCI-H460 lung = system: NCI-H460 lung
NCI-H522 lung = system: NCI-H522 lung
OVCAR-3 ovarian = system: OVCAR-3 ovarian
OVCAR-4 ovarian = system: OVCAR-4 ovarian
OVCAR-5 ovarian = system: OVCAR-5 ovarian
OVCAR-8 ovarian = system: OVCAR-8 ovarian
RPMI-8226 leukemia = system: RPMI-8226 leukemia
RXF 393 renal = system: RXF 393 renal
RXF-631 renal = system: RXF-631 renal
SF-268 CNS = system: SF-268 CNS
SF-295 CNS = system: SF-295 CNS
SF-539 CNS = system: SF-539 CNS
SK-MEL-2 melanoma = system: SK-MEL-2 melanoma
SK-MEL-28 melanoma = system: SK-MEL-28 melanoma
SK-MEL-5 melanoma = system: SK-MEL-5 melanoma
SK-OV-3 ovarian = system: SK-OV-3 ovarian
SN12C renal = system: SN12C renal
SNB-19 CNS = system: SNB-19 CNS
SNB-75 CNS = system: SNB-75 CNS
SNB-78 CNS = system: SNB-78 CNS
SR leukemia = system: SR leukemia
SW-620 colon = system: SW-620 colon
TK-10 renal = system: TK-10 renal
U251 CNS = system: U251 CNS
UACC-257 melanoma = system: UACC-257 melanoma
UACC-62 melanoma = system: UACC-62 melanoma
UO-31 renal = system: UO-31 renal
XF 498 CNS = system: XF 498 CNS
A549 NSCLC = system: A549 NSCLC
HCC-2998 colon = system: HCC-2998 colon
HCT-116 colon = system: HCT-116 colon

Measured: TGI

O=c1[nH]cnc2c(COCCO)c[nH]c12
not listed: A549 NSCLC | HCC-2998 colon | HCT-116 colon
> 100 µM: all other assays above

COC(=O)Cc1cc(=O)[nH]c2c1C(=O)CCC2
not listed: A498 renal | CAKI-1 renal | COLO 205 colon | DMS 114 small cell lung | DMS 273 small cell lung | HOP-62 NSCLC | KM20L2 colon | LOX IMVI melanoma | M19-MEL melanoma | OVCAR-4 ovarian | RXF-631 renal | SNB-75 CNS | SNB-78 CNS | UACC-62 melanoma | HCT-116 colon
> 100 µM: all other assays above

O=C(NCCCl)SCCO
not listed: CAKI-1 renal | HOP-18 NSCLC | HOP-92 NSCLC | LOX IMVI melanoma | SK-MEL-5 melanoma | XF 498 CNS
> 100 µM: all other assays above
